Test results as given in US20220340566A1, “BENZYL AMINE-CONTAINING 5,6-HETEROAROMATIC COMPOUNDS USEFUL AGAINST MYCOBACTERIAL INFECTION” (priority 2019, published 2022).
Read-outs that look alike come from different tables or passages of the source.

Legend:
[1] = Metabolic stability test in pooled human liver microsomes; type: in vitro ADME; settings: human liver microsomes 0.5 mg protein/mL, 1 mmol/L NADPH, 37° C., 30 minutes
How it was run: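 Remaining-rate readout: parent compound left after 30 min versus 0 min (set as 100%), measured by LC/MS/MS or SPE/MS. Oxidative reaction ran at 37° C. with 1 mmol/L NADPH, 0.5 mg protein/mL pooled human microsomes, 50 mmol/L Tris-HCl pH 7.4 buffer.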

[2] = tested on: Mycobacterium avium ATCC700898; test: Determination of IC85 against M. avium (resazurin fluorescence); type: cell-based; settings: 37° C., 3 days incubation then resazurin, fluorescence one day later
[3] = Mycobacterium avium, ATCC700898, M. avium ATCC700898, CAMHB medium, read-out: IC85

Compound | MS_h_% (remaining amount of compound after reaction, 0 minute = 100%) [1] | IC85 [2, 3] | IC85 ([2]; M. avium ATCC700898, CAMHB medium)
CCc1nc2cc(F)ccn2c1C(=O)NCc1ccc(N2CC=C(c3ccc(OC(F)(F)F)cc3)CC2)c(F)c1.Cl [Compound I-1-87] | 86% | 7.9 nM | –
CCc1nc2cc(F)ccn2c1C(=O)NCc1cc(F)c(N2CCC(c3ccc(OC(F)(F)F)cc3)CC2)c(F)c1.Cl [Compound I-1-88] | 89% | 6.1 nM | –
COc1ccn2nc(C)c(C(=O)NCc3ccc(C4CCN(c5ccc(OC(F)(F)F)cc5)CC4)c(F)c3)c2c1.Cl [Compound I-1-89] | 65% | 7.2 nM | –
COc1ccn2nc(C)c(C(=O)NCc3ccc(N4CCN(c5ccc(OC(F)(F)F)cc5)[C@@H](C)C4)c(F)c3)c2c1.Cl [Compound I-1-90] | 91% | 5.2 nM | –
COc1ccn2nc(C)c(C(=O)NCc3ccc(N4CCN(c5ccc(OC(F)(F)F)cc5)[C@H](C)C4)c(F)c3)c2c1.Cl [Compound I-1-91] | 89% | 5.3 nM | –
CCc1nc2ccc(Cl)cn2c1C(=O)NCc1cc(F)c(N2CCN(c3ccc(OC(F)(F)F)cc3)[C@@H](C)C2)c(F)c1.Cl [Compound I-1-92] | 66% | 5.5 nM | –
CCc1nc2ccc(Cl)cn2c1C(=O)NCc1ccc(N2CCN(c3ccc(OC(F)(F)F)cc3)[C@@H](C)C2)c(F)c1F.Cl [Compound I-1-93] | 67% | 11 nM | –
CCc1nc2ccc(Cl)cn2c1C(=O)NCc1cc(F)c(N2CCN(c3ccc(OC(F)(F)F)cc3)[C@@H](C)C2)cc1F.Cl [Compound I-1-94] | 67% | 14 nM | –
CCc1nc2cc(F)ccn2c1C(=O)NCc1cc(F)c(N2CCN(c3ccc(OC(F)(F)F)cc3)[C@@H](C)C2)c(F)c1.Cl [Compound I-1-95] | 91% | 2.2 nM | –
CCc1nc2cc(F)ccn2c1C(=O)NCc1ccc(N2CCN(c3ccc(OC(F)(F)F)cc3)[C@@H](C)C2)c(F)c1F.Cl [Compound I-1-96] | 90% | 11 nM | –
CCc1nc2cc(F)ccn2c1C(=O)NCc1cc(F)c(N2CCN(c3ccc(OC(F)(F)F)cc3)[C@@H](C)C2)cc1F.Cl [Compound I-1-97] | 86% | 7.2 nM | –
CCc1nc2ccc(Cl)cn2c1C(=O)NCc1ccc(N2CCN(c3ccc(OC(F)(F)F)cc3F)[C@@H](C)C2)c(F)c1.Cl [Compound I-1-98] | 76% | 8.8 nM | –
CCc1nc2ccc(Cl)cn2c1C(=O)NCc1ccc(N2CCN(c3ncc(C(F)(F)F)cc3F)[C@@H](C)C2)c(F)c1.Cl [Compound I-1-99] | 77% | 35 nM | –
CCOc1ccc(N2CCN(c3ccc(CNC(=O)c4c(CC)nc5ccc(Cl)cn45)c(F)c3)C[C@@H]2C)cc1.Cl [Compound I-1-100] | 65% | 46 nM | –
CCOc1ccc(N2CCN(c3ccc(CNC(=O)c4c(CC)nc5ccc(Cl)cn45)c(F)c3)C[C@@H]2C)c(F)c1.Cl [Compound I-1-101] | 90% | 470 nM | –
CCc1nc2ccc(Cl)cn2c1C(=O)NCc1ccc(N2CCN(c3ccc(OCC4CC4)cc3)[C@@H](C)C2)cc1F.Cl [Compound I-1-102] | 75% | 24 nM | –
CCCCOc1ccc(N2CCN(c3ccc(CNC(=O)c4c(CC)nc5ccc(Cl)cn45)c(F)c3)C[C@@H]2C)cc1.Cl [Compound I-1-103] | 64% | 19 nM | –
Cc1nn2ccccc2c1C(=O)NCc1ccc(N2CCN(c3ccc(OC(F)(F)F)cc3)[C@@H](C)C2)c(F)c1.Cl [Compound I-1-104] | 72% | 92 nM | –
Cc1nn2cc(F)ccc2c1C(=O)NCc1ccc(N2CCN(c3ccc(OC(F)(F)F)cc3)[C@@H](C)C2)c(F)c1.Cl [Compound I-1-105] | 77% | 59 nM | –
CCc1nc2ccc(Cl)cn2c1C(=O)NCc1ccc(C2CCN(c3ccc(OC(F)(F)F)cc3)[C@@H](C)C2)c(F)c1.Cl (stereo partly drawn) [Compound I-1-106] | 59% | 6.2 nM | –

Compound | MS_h_% (remaining amount of compound after reaction, 0 minute = 100%) [1] | IC85 [2, 3] | IC85 ([2]; M. avium ATCC700898, CAMHB medium)
CCc1nc2ccc(Cl)cn2c1C(=O)NCc1ccc(C2=C[C@H](C)N(c3ccc(OC(F)(F)F)cc3)CC2)c(F)c1.Cl [Compound I-1-107] | 71% | 7 nM | –
CCc1nc2cc(F)ccn2c1C(=O)NCc1ccc(N2CCN(c3ccc(OC(F)(F)F)cn3)[C@@H](C)C2)c(F)c1.Cl [Compound I-1-108] | 71% | 4.2 nM | –
CCOc1ccc(N2CCN(c3ccc(CNC(=O)c4c(CC)nc5cc(F)ccn45)cc3F)C[C@@H]2C)cc1.Cl [Compound I-1-109] | 80% | 7.1 nM | –
CCc1nc2cc(F)ccn2c1C(=O)NCc1ccc(N2CCN(c3ccc(OC4CC4)cc3)[C@@H](C)C2)c(F)c1.Cl [Compound I-1-110] | 80% | 9.3 nM | –
CCc1nc2cc(F)ccn2c1C(=O)NCc1ccc(N2CCN(c3ccc(OC(C)C)cc3)[C@@H](C)C2)c(F)c1.Cl [Compound I-1-111] | 88% | 7.1 nM | –
CCc1nc2cc(F)ccn2c1C(=O)NCc1ccc(N2CCN(c3ccc(C(F)(F)F)cc3)[C@@H](C)C2)c(F)c1.Cl [Compound I-1-112] | 69% | 1.4 nM | –
CCc1nc2cc(F)ccn2c1C(=O)NCc1ccc(N2CCN(c3ccc(C(F)(F)F)cn3)[C@@H](C)C2)c(F)c1.Cl [Compound I-1-113] | 79% | 4.8 nM | –
CCc1nc2cc(F)ccn2c1C(=O)NCc1ccc(N2CCN(c3ccc(C(F)(F)F)cn3)[C@@H](C)C2)c(F)c1.Cl [Compound I-1-114] | 87% | – | 7.4 nM
CCc1nc2cc(F)ccn2c1C(=O)NCc1ccc(N2CCN(c3ccc(OCC(F)(F)F)cc3)[C@@H](C)C2)c(F)c1.Cl [Compound I-1-115] | 69% | 4.6 nM | –
CCc1nc2cc(F)ccn2c1C(=O)NCc1ccc(N2CCN(c3ccc(OCC(F)(F)F)nc3)[C@@H](C)C2)c(F)c1.Cl [Compound I-1-116] | 87% | 11 nM | –
CCc1nc2cc(F)ccn2c1C(=O)NCc1ccc(N2CCN(c3ccc(OC(F)(F)F)c(F)c3)[C@@H](C)C2)c(F)c1.Cl [Compound I-1-117] | 83% | 2.5 nM | –
CCc1nc2cc(F)ccn2c1C(=O)NCc1ccc(N2CCN(c3ccc(OC(F)(F)F)cc3F)[C@@H](C)C2)c(F)c1.Cl [Compound I-1-118] | 97% | 7.6 nM | –
CCc1nc2cc(F)ccn2c1C(=O)NCc1ccc(N2CCN(c3cc(F)c(OC(F)(F)F)c(F)c3)[C@@H](C)C2)c(F)c1.Cl [Compound I-1-119] | 63% | 6.5 nM | –
CCOc1ccc(N2CCN(c3ccc(CNC(=O)c4c(CC)nc5cc(F)ccn45)cc3F)C[C@@H]2C)cn1.Cl [Compound I-1-120] | 71% | 12 nM | –
CCc1nc2cc(F)ccn2c1C(=O)NCc1ccc(N2CCN(c3ccc(OC(F)(F)C(F)(F)F)cc3)[C@@H](C)C2)c(F)c1.Cl [Compound I-1-121] | 95% | 3 nM | –
Cc1nn2ccc(Br)cc2c1C(=O)NCc1ccc(N2CCN(c3ccc(OC(F)(F)F)cc3)[C@@H](C)C2)c(F)c1.Cl [Compound I-1-122] | 81% | 66 nM | –
COc1ccn2nc(C)c(C(=O)NCc3ccc(N4CCC(c5ccc(OC(F)(F)F)cc5)CC4)c(F)c3)c2c1.Cl [Compound I-1-123] | 77% | 14 nM | –
CCc1nc2cc(F)ccn2c1C(=O)NCc1ccc(N2CCN(c3ccc(OC(F)(F)F)cc3)[C@H]3CCCC[C@@H]32)c(F)c1.Cl [Compound I-1-124] | 63% | 870 nM | –
COc1ccn2nc(C)c(C(=O)NCc3ccc(N4CCN(c5ccc(OC(F)(F)F)cc5)[C@H]5CCCC[C@@H]54)c(F)c3)c2c1 [Compound I-1-125] | 68% | 780 nM | –
